Measurements as given in patent US20260232767A1, “INTERLEUKIN-23 RECEPTOR ANTAGONIST PEPTIDES FOR USE IN THE TREATMENT OF PSORIASIS” (Janssen Pharmaceutica NV, priority 2023, published 2026).

Tested on: subjects with moderate-to-severe plaque psoriasis
Assay: PASI response, Example 2 long-term extension to Week 52
Format: in vivo, human
Details: for Change from Baseline in PASI Total Score, LSMean: MMRM model
Description: Described below is a multicenter, long-term extension (LTE), double-blind, dose-ranging, parallel group interventional study in participants from Example 1 to evaluate the long-term efficacy and safety of the hydrochloride salt of the compound of Formula (I) for the treatment of moderate-to-severe plaque psoriasis. Patients from Example 1 continued to receive the same dose of the compound of Formula (I) for an additional 36-week treatment period with a 4-week safety follow up period after the last administration of the compound of Formula (I). Patients randomized to placebo in Example 1 received the compound of Formula (I) at a dose of 100 mg QD starting at Week 16 of Example 1 (FIG. 21).
The primary efficacy endpoint is the proportion of participants achieving a PASI 75 response at Week 52, defined as at least a […] reduction from baseline PASI of Example 1. For primary analysis, composite strategy (non-responder imputation) was applied to address intercurrent event #1 (Discontinuation of study intervention due to lack of efficacy or due to an AE of worsening of psoriasis) and […] (initiation of a protocol-prohibited medication or therapy that could improve psoriasis); treatment policy strategy (observed data) was applied to intercurrent event #3 (Discontinuation of study intervention due to other reasons). Participants with missing data after application of ICEs are considered as non-responders.
Since there was no control arm (after week 16), in this primary analysis, only the proportion of participants who achieved a PASI75 response and its […] confidence interval at Week 52 were summarized for each intervention group.

[1] = 50 mg QD, Week 52, non-responder imputation

## CC(=O)NCCCC[C@@H]1NC(=O)[C@H](Cc2c[nH]c3c(C)cccc23)NC(=O)[C@H]([C@@H](C)O)NC(=O)[C@H](CC(N)=O)NC(=O)[C@@H](NC(C)=O)C(C)(C)SSC(C)(C)[C@@H](C(=O)N[C@@H](Cc2ccc(OCCN)cc2)C(=O)N[C@@H](Cc2ccc3ccccc3c2)C(=O)NC2(C(=O)N[C@@H](CCC(=O)O)C(=O)N[C@@H](CC(N)=O)C(=O)N[C@@H](Cc3cccnc3)C(=O)N(C)CC(N)=O)CCOCC2)NC1=O [IL-23 receptor antagonist peptide, Ac-[Pen]*-N-T-[W(7-Me)]-[Lys(Ac)]-[Pen]*-Phe[4-(2-aminoethoxy)]-[2-Nal]-[THP]-E-N-[3-Pal]-Sarc-NH2 (*[Pen]-[Pen]* formdisulfidebond)]
50 mg QD, Week 16
  Change from Baseline in PASI Total Score, Median: −14.90
  Change from Baseline in PASI Total Score, LSMean: −14.4
50 mg QD, Week 20
  Change from Baseline in PASI Total Score, Mean: −14.92
  Change from Baseline in PASI Total Score, Median: −15.10
  Change from Baseline in PASI Total Score, LSMean: −14.7
50 mg QD, Week 24
  Change from Baseline in PASI Total Score, Mean: −15.10
  Change from Baseline in PASI Total Score, Median: −15.70
  Change from Baseline in PASI Total Score, LSMean: −14.9
50 mg QD, Week 28
  Change from Baseline in PASI Total Score, Mean: −14.75
  Change from Baseline in PASI Total Score, Median: −15.50
  Change from Baseline in PASI Total Score, LSMean: −14.6
50 mg QD, Week 32
  Change from Baseline in PASI Total Score, Mean: −14.88
  Change from Baseline in PASI Total Score, Median: −15.80
  Change from Baseline in PASI Total Score, LSMean: −14.6
50 mg QD, Week 40
  Change from Baseline in PASI Total Score, Mean: −14.33
  Change from Baseline in PASI Total Score, Median: −15.45
  Change from Baseline in PASI Total Score, LSMean: −14.2
50 mg QD, Week 52
  Change from Baseline in PASI Total Score, Mean: −14.45
  Change from Baseline in PASI Total Score, Median: −15.80
  Subjects achieving PASI 75: 30 (69.8%)
  Change from Baseline in PASI Total Score, LSMean: −14.3
[1]
  Subjects achieving 100% Improvement at Week 52 (PASI): (20.9%)
  Subjects achieving ≥75% Improvement at Week 52 (PASI 75 Response): 30 (69.8%)
  Subjects achieving ≥90% Improvement at Week 52 (PASI): (41.9%)
100 mg BID, Week 1
  Change from Baseline in PASI Total Score, Mean: −3.25
  Change from Baseline in PASI Total Score, Median: −1.20
  Change from Baseline in PASI Total Score, LSMean: −2.9
100 mg BID, Week 2
  Change from Baseline in PASI Total Score, Mean: 6.07
  Change from Baseline in PASI Total Score, Median: −4.85
  Change from Baseline in PASI Total Score, LSMean: −5.7
100 mg BID, Week 4
  Change from Baseline in PASI Total Score, Mean: −10.71
  Change from Baseline in PASI Total Score, Median: −9.70
  Change from Baseline in PASI Total Score, LSMean: −10.0
100 mg BID, Week 8
  Change from Baseline in PASI Total Score, Mean: −14.66
  Change from Baseline in PASI Total Score, Median: −13.30
  Change from Baseline in PASI Total Score, LSMean: −13.8
100 mg BID, Week 12
  Change from Baseline in PASI Total Score, Mean: −16.77
  Change from Baseline in PASI Total Score, Median: −17.05
  Change from Baseline in PASI Total Score, LSMean: −15.9
100 mg BID, Week 16
  Change from Baseline in PASI Total Score, Mean: −17.44
  Change from Baseline in PASI Total Score, Median: −17.40
  Change from Baseline in PASI Total Score, LSMean: −16.5
100 mg BID, Week 20
  Change from Baseline in PASI Total Score, Mean: −17.83
  Change from Baseline in PASI Total Score, Median: −17.40
  Change from Baseline in PASI Total Score, LSMean: −17.0
100 mg BID, Week 24
  Change from Baseline in PASI Total Score, Mean: −17.99
  Change from Baseline in PASI Total Score, Median: −17.80
  Change from Baseline in PASI Total Score, LSMean: −17.1
100 mg BID, Week 28
  Change from Baseline in PASI Total Score, Mean: −17.96
  Change from Baseline in PASI Total Score, Median: −17.75
  Change from Baseline in PASI Total Score, LSMean: −17.2
100 mg BID, Week 32
  Change from Baseline in PASI Total Score, Mean: −18.37
  Change from Baseline in PASI Total Score, Median: −18.20
  Change from Baseline in PASI Total Score, LSMean: −17.3
100 mg BID, Week 40
  Change from Baseline in PASI Total Score, Mean: −18.30
  Change from Baseline in PASI Total Score, Median: −18.30
  Change from Baseline in PASI Total Score, LSMean: −17.4
100 mg BID, Week 52
  Change from Baseline in PASI Total Score, Mean: −18.46
  Change from Baseline in PASI Total Score, Median: −18.60
  Subjects achieving PASI 75: 32 (76.2%)
  Change from Baseline in PASI Total Score, LSMean: −17.4
100 mg BID, Week 52, non-responder imputation
  Subjects achieving ≥75% Improvement at Week 52 (PASI 75 Response): 32 (76.2%)
100 mg QD, Week 1
  Change from Baseline in PASI Total Score, Mean: −2.60
  Change from Baseline in PASI Total Score, Median: −1.10
  Change from Baseline in PASI Total Score, LSMean: −2.8
100 mg QD, Week 2
  Change from Baseline in PASI Total Score, Mean: −5.13
  Change from Baseline in PASI Total Score, Median: −3.25
  Change from Baseline in PASI Total Score, LSMean: −5.3
100 mg QD, Week 4
  Change from Baseline in PASI Total Score, Mean: −8.39
  Change from Baseline in PASI Total Score, Median: −7.30
  Change from Baseline in PASI Total Score, LSMean: −8.7
100 mg QD, Week 8
  Change from Baseline in PASI Total Score, Mean: −12.04
  Change from Baseline in PASI Total Score, Median: −11.30
  Change from Baseline in PASI Total Score, LSMean: −12.5
100 mg QD, Week 12
  Change from Baseline in PASI Total Score, Mean: −13.70
  Change from Baseline in PASI Total Score, Median: −13.60
  Change from Baseline in PASI Total Score, LSMean: −14.0
100 mg QD, Week 16
  Change from Baseline in PASI Total Score, Mean: −13.99
  Change from Baseline in PASI Total Score, Median: −14.75
  Change from Baseline in PASI Total Score, LSMean: −14.4
100 mg QD, Week 20
  Change from Baseline in PASI Total Score, Mean: −14.57
  Change from Baseline in PASI Total Score, Median: −14.10
  Change from Baseline in PASI Total Score, LSMean: −15.1
100 mg QD, Week 24
  Change from Baseline in PASI Total Score, Mean: −15.27
  Change from Baseline in PASI Total Score, Median: −14.90
  Change from Baseline in PASI Total Score, LSMean: −15.6
100 mg QD, Week 28
  Change from Baseline in PASI Total Score, Mean: −16.11
  Change from Baseline in PASI Total Score, Median: −15.00
  Change from Baseline in PASI Total Score, LSMean: −15.8
100 mg QD, Week 32
  Change from Baseline in PASI Total Score, Mean: −16.21
  Change from Baseline in PASI Total Score, Median: −15.10
  Change from Baseline in PASI Total Score, LSMean: −16.2
100 mg QD, Week 40
  Change from Baseline in PASI Total Score, Mean: −15.95
  Change from Baseline in PASI Total Score, Median: −15.00
  Change from Baseline in PASI Total Score, LSMean: −15.7
100 mg QD, Week 52
  Change from Baseline in PASI Total Score, Mean: −15.81
  Change from Baseline in PASI Total Score, Median: −15.00
